Experimental data published in patent publication US6399766B2, “4-halogenated steroids, their preparation process and intermediates, their use as medicaments and the pharmaceutical compositions containing them” (Aventis Pharma S.A., priority 1997, dated 2002).

Experiments:
[1] = system: ovariectomized female rat; experiment: Bone impact study in the ovariectomized female rat at the age of 3 months (tibia BMD, uterus weight, seric cholesterol); assay type: in vivo; details: OVX rat, 4 weeks; for TIBIA BONE BMD %: (product BMD - OVX BMD)x100/(SHAM BMD - OVX BMD); for UTERUS Weight %: increase in % of uterus weight of OVX animals receiving only solvent; for Cholesterol %: seric cholesterol, % relative to OVX animals receiving only solvent
Description: Bone impact study of a product in the ovariectomized female rat at the age of 3 months Compounds A, B, C, D, E are tested in order to determine their effect on the bone mass and on the formation and resorption activity in the model of the ovariectomized rat at the age of 3 months. […] The study is carried out with female rats ovariectomized at the age of 3 months. The animals are kept in an air conditioned room (temperature 20° C.±2° C.) and grouped by 4 into boxes. The animals receive, ad libitum, demineralized water and compressed foods (pellets: AO4CR-10 UAR). The 3 month old female rats weighing approximately 250 g are ovariectomized under anaesthesia with Imalgene 1000, at a dose of 100 mg/kg by intraperitoneal route (i.p.) and under a volume of 1 ml/kg. They also receive Nembutal (3 mg/kg i.p. under a volume of 0.3 ml/kg). After lateral incision, cutaneous and muscular planes are sectioned. The exeresis of each ovary is carried out after ligature of the oviduct. The “SHAM” control rats are anaesthetised under the same conditions. After incision of the cutaneous and muscular planes, each ovary is exposed then replaced in situ. The effects of the products are determined in a preventive treatment. They are administered immediately after the ovariectomy. Animals distributed into groups of 8. Group 1: “SHAM” control rats receiving the vehicle or vehicles Group 2: “OVX” control rats receiving the vehicle or vehicles. Groups X: “OVX” rats receiving respectively defined doses of the product or products to be tested. At the end of 4 weeks (duration of the study) the animals are decapitated by guillotine. The serums collected after centrifugation are preserved at −20° C. A lipidic balance will be established from the serous determinations of total cholesterol, of triglycerides and of phospholipids on a 500 μl aliquot of serum. The lowering of the seric cholesterol level is expressed in % relative to the level shown by the ovariectomized animals receiving only the solvent. The uteri are removed. The latter are weighed. The increase in weight is expressed in % of the weight of the uterus of ovariectomized animals receiving only the solvent. The bone mass (BMD or Bone mineral density) is measured by biphotonic dual energy X-ray absorptiometry (DEXA). The measurements are carried out on bone excized and cleaned of all soft tissue. The BMD (Bone mineral density) is measured on the whole bone as well as on the metaphyseal part at the level of the proximal extremity for the left tibia. This zone is defined as being the region which is richest in trabecular bone; and consequently, is the most sensitive to variations in bone volume and bone mineral density. The results are expressed in % according to the formula: Tested product BMD - OVX BMD ×100/SHAM BMD - OVX BMD

[2] = system: MCF-7 human mammary cells; experiment: Effect on the proliferation of mammary cells; assay type: cell-based; design: key: Mixed: slight agonist activity at very low concentrations and an inhibitory activity at higher concentrations; details: 7 days culture, steroid-free medium, DNA determination; oestradiol at 10^−10M = 100% agonist activity
From the text: PHARMACOLOGICAL TESTS Effect on the proliferation of mammary cells The proliferative activity of the molecules is studied in comparison to that of oestradiol on MCF-7 human mammary cells in culture. In order to reveal an agonist effect of the oestradiol and/or the tested molecules, the cell maintenance culture (rich in growth factors and steroids) is replaced by an impoverished medium, amongst others free of steroids (DMEM supplemented with 5% of steroid-free serum and without phenol red). Cells undergo this severance two days before the start of the test. After 7 days culture in the presence of the products to be studied, the cell proliferation is evaluated by determination of the DNA. In each test, the effect of the oestradiol at 10^−10M (cell growth in the presence of oestradiol less cell growth in the presence of the solvent) determines the 100% agonist activity. The activity of the molecules is evaluated in comparison to this internal control.

| Compound | TIBIA BONE BMD % ([1]; 0.3 mg/kg po) [%] | UTERUS Weight % ([1]; 0.3 mg/kg po) [%] | Cholesterol % ([1]; 0.3 mg/kg po) [%] | TIBIA BONE BMD % ([1]; 1.0 mg/kg po) [%] | UTERUS Weight % ([1]; 1.0 mg/kg po) [%] | Cholesterol % ([1]; 1.0 mg/kg po) [%] | ACTIVITY (proliferative activity on MCF-7 cells) [2] | TIBIA BONE BMD % ([1]; 0.1 mg/kg s.c.) [%] | UTERUS Weight % ([1]; 0.1 mg/kg s.c.) [%] | Cholesterol % ([1]; 0.1 mg/kg s.c.) [%] |
| --- | --- | --- | --- | --- | --- | --- | --- | --- | --- | --- |
| C[C@]12C[C@H](c3ccc(OCCN4CCCCC4)cc3)[C@@H]3c4ccc(O)c(Cl)c4CC[C@H]3[C@@H]1CCC2=O [Example 1, 4-chloro-3-hydroxy-11beta-[4-[2-(1-piperidinyl)ethoxy]phenyl]-estra-1,3,5 (10)-trien-17-one] | 57 | 55 | −50 | 64 | 55 | −48 | Mixed |  |  |  |
| CCN(CC)CCOc1ccc([C@H]2C[C@]3(C)[C@@H](O)CC[C@H]3[C@@H]3CCc4c(ccc(O)c4Cl)[C@H]32)cc1 [Example 20, 4-chloro-11beta-[4-[2-(diethylamino)ethoxy]phenyl]-estra-1,3,5 (10)-triene-3,17beta-diol] | 69 | 60 | −43 | 74 | 50 | −40 | Mixed* |  |  |  |
| C[C@]12C[C@H](c3ccc(OCCN4CCCCC4)cc3)[C@@H]3c4ccc(O)c(Cl)c4CC[C@H]3[C@@H]1CC[C@@H]2O [Example 22, 4-chloro-11β-[4-[2-(1-piperidinyl)ethoxy]phenyl]-estra-1,3,5(10)-triene-3,17beta-diol] | 63 | 57 | −52 |  |  |  | Inactive |  |  |  |
| C[C@]12C[C@H](c3ccc(OCCN4CCCC4)cc3)[C@@H]3c4ccc(O)c(Cl)c4CC[C@H]3[C@@H]1CC[C@@H]2O [Example 23, 4-chloro-11β-[4-[2-(1-pyrrolidinyl)ethoxy]phenyl]-estra-1,3,5(10)-triene-3,17beta-diol] | 67 | 64 | −53 | 71 | 74 | −53 | Mixed |  |  |  |
| CC1(O)CCC2C3CCc4c(ccc(O)c4Cl)C3C(c3ccc(OCCN4CCCCC4)cc3)CC21C (stereo not drawn) [Example 30, 4-chloro-17alpha-methyl-11β-[4-[2-(1-piperidinyl)ethoxy]phenyl]-estra-1,3,5(10)-triene-3,17beta-diol.] | 52 | 68 | −51 | 71 | 55 | −48 | Mixed |  |  |  |
| C[C@]12CC[C@@H]3c4ccc(O)cc4CC[C@H]3[C@@H]1CC[C@@H]2O [Oestradiol, 17β oestradiol, reference compound] |  |  |  |  |  |  | Agonist | 105 | 359 | −35 |
